Entries after “also recorded” stand apart in the source; their conditions may differ.
What was measured:
[1] = system: cultured bovine blood-brain barrier endothelial cells; test: Intracellular sodium (sodium green fluorescence) in cultured blood-brain barrier cells under simulated ischemia-reperfusion; type: cell-based; conditions: 100 μM; ischemia 90 mins, reperfusion 30 mins
Experimental: FIG. 3 is a bar graph of data showing that when cerebral capillary endothelial cells are exposed to ischemic conditions, intracellular sodium concentration increases and remains elevated during reperfusion; the elevation in intracellular sodium is prevented by pharmacological inhibition of the Na/H antiporter. Cultured bovine blood-brain barrier cells were exposed to conditions simulating ischemia and reperfusion, by incubating in 95% N2/5% CO2 without glucose (90 mins) at pH 6.8, followed by room air/5% CO2 with 5.6 mM glucose (30 mins) at pH 7.4, respectively. […] The rise in intracellular sodium observed during reperfusion was prevented by inhibiting Na/H exchange (100 μM dimethylamiloride, DMA). *P<0.05. Values are mean±SD. […] Intracellular sodium was measured with fluorescent imaging, using sodium green. […]
Cultured bovine blood-brain barrier endothelial cells were exposed to conditions simulating ischemia and reperfusion as described in Example 2. Sodium fluorescence is measured in cultured bovine blood-brain barrier endothelial cells under the following conditions: 1) control (120 minutes), 2) simulated ischemia (120 minutes), 3) simulated ischemia (90 minutes) followed by simulated reperfusion (30 minutes), 4) simulated ischemia/reperfusion (90/30 minutes), in the presence of an inhibitor (dimethylamiloride, 100 μM) of Na/H exchange. […]

[2] = system: cultured bovine blood-brain barrier endothelial cells; test: Intracellular calcium (Fluo-4 fluorescence) in cultured blood-brain barrier cells under simulated ischemia-reperfusion; type: cell-based; conditions: 100 μM DMA (Na/H antiport inhibition), listed as DMA
Experimental: FIG. 4 is a bar graph of data showing that when cerebral capillary endothelial cells are exposed to ischemic conditions, intracellular calcium concentration increases and remains elevated during reperfusion; the elevation in intracellular calcium is prevented by pharmacological inhibition of the Na/H antiporter. Cultured bovine blood-brain barrier cells were treated as described above (FIG. 2). […] The rise in intracellular calcium observed during reperfusion was prevented by inhibiting Na/H antiport (100 μM DMA). *P<0.05 compared to control. +P<0.05 compared to reperfusion. Values are mean±SD. Intracellular calcium was measured with fluorescent imaging, using Fluo-4.
FIG. 5 is a bar graph of data showing that when cerebral capillary endothelial cells are exposed to ischemic conditions, intracellular calcium concentration increases and remains elevated during reperfusion; the elevation in intracellular calcium is prevented by pharmacological inhibition of reverse movement of the Na/Ca exchanger. Cultured bovine blood-brain barrier cells were treated as described above (FIG. 2). […] The rise in intracellular calcium observed during reperfusion was prevented by inhibiting reverse movement of Na/Ca exchange (20 μM KB-R7943). *P<0.05 compared to control. +P<0.05 compared to reperfusion. Values are mean±SD. Intracellular calcium was measured with fluorescent imaging, using Fluo-4. […]

[3] = system: caspase 3 activity in cultured bovine blood-brain barrier endothelial cells; test: Caspase 3 activity in cultured blood-brain barrier cells under simulated ischemia-reperfusion; type: cell-based; conditions: 100 μM; 30 mins ischemia, 24 hours reperfusion; P<0.05 from I/Rep
From the text: FIG. 6 is a bar graph of data showing that ischemia followed by reperfusion of cultured cerebral capillary endothelial cells results in an increase of caspase 3 activity that is inhibited by an inhibitor of Na/H exchange. Caspase 3 activity is expressed in cultured blood-brain barrier cells exposed to conditions simulating ischemia-reperfusion. […] I/Rep is ischemia plus reperfusion; I/R Na inh is ischemia-reperfusion with inhibitor; I/R Cp inh is ischemia-reperfusion with a specific caspase inhibitor. Values are mean±SD for 3 observations.
Cultured blood-brain barrier cells can be exposed to conditions simulating ischemia and reperfusion, by a method similar to that reported in the literature (25). The precise composition of the incubation medium varies, depending upon the experimental protocols. In general, however, cells are incubated at 37° C. first in an ischemic medium (without glucose, pH 6.8) equilibrated with an atmosphere of 95% N2 and 5% CO2, followed by simulated reperfusion in a control medium (5.6 mM glucose, pH 7.4) equilibrated with room air and 5% CO2. […]
Caspase 3 activity was measured in cultured bovine blood-brain barrier endothelial cells under control conditions (24.5 hours), simulated ischemia (24.5 hours), or ischemia (0.5 hours) followed by reperfusion (24 hours, I/Rep) as described in Example 2. […]

[4] = system: cultured blood-brain barrier endothelial cells; test: Lactate dehydrogenase (LDH) release from cultured blood-brain barrier endothelial cells under ischemia and reperfusion; type: cell-based, bovine; conditions: 1 mM; ischemia 1.5 hrs, reperfusion 3.0 hrs; P<0.05
From the text: FIG. 7 is a bar graph of data showing that the antioxidant gamma-glutamyl cysteine (γ-Glu-Cys) inhibits cell damage to cerebral capillary endothelial cells cultured under conditions of ischemia and reperfusion.
Cultured blood-brain barrier cells can be used as an in vitro cellular model to confirm that Na/Ca exchange may operate in the reverse direction under conditions simulating reperfusion, following transient ischemia. Cerebral capillary endothelial cells are isolated from bovine brain by the method of Meresse et al. (42), or purchased from Cell Systems Corporation (Kirkland, Wash.). Cells are grown and maintained (up to passage 5) on collagen type I- and fibronectin-coated tissue culture flasks in Eagle's minimal essential medium supplemented with 10% fetal bovine serum (54, 62). To form a polarized endothelium, cells are seeded on cluster plate inserts and incubated in the presence of an astrocyte conditioned medium supplemented with cAMP, as previously described (4, 54). […]
Cultured blood-brain barrier endothelial cells were incubated under conditions of ischemia (1.5 hours) followed by reperfusion (3.0 hours), in the presence and absence of γ-glutamyl cysteine (γ-Glu-Cys). Cellular damage was detected by measuring release of lactate dehydrogenase (LDH) into the incubation medium, following treatment. […]

in vitro = in vitro ADME; conditions: rat
Experimental: Separate peaks representing the intact peptide and its metabolites are plotted as a function of time. The area under the curve for selected peaks may be measured and compared to appropriate standards to quantify the concentration of γ-Glu-Cys and its metabolites.
Loss of γ-Glu-Cys from the incubation medium, and the appearance of Cys and oxidized γ-Glu-Cys were quantified using HPLC to measure degradation, hydrolysis, and oxidation respectively. The ½-time for degradation of γ-Glu-Cys is 11.3±1.2 mins. Values are mean±SD. N=3 separate experiments.
Loss of γ-Glu-D-Cys from the incubation medium, and the appearance of D-Cys and oxidized γ-Glu-D-Cys were quantified using HPLC to measure degradation, hydrolysis, and oxidation respectively. Values are mean±SD. N=3 separate experiments.
Comparing the initial rates of degradation confirmed that γ-Glu-D-Cys is degraded more slowly (0.12±0.02 vs 0.22±0.02 mM/min, P=0.006). Values are mean±SD. N=3 separate experiments.
Values are mean±SD. N=3 separate experiments. * indicates significant difference at P<0.05.
As a measure of stability, the initial velocities of degradation for γ-Glu-Cys and γ-Glu-D-Cys were compared and found to be 0.22±0.03 vs. 0.12±0.02 (mM/min), respectively.
FIG. 11 is a graph showing the temporal comparison of degradation, oxidation and hydrolysis of γ-Glu-Cys. FIG. 12 is a graph showing the temporal comparison of degradation, oxidation, and hydrolysis of the analog γ-Glu-D-Cys. FIG. 13 is a graph comparing the degradation of γ-Glu-Cys and γ-Glu-D-Cys, as measured by the loss of intact peptide as a function of time of incubation. FIG. 14 is a graph comparing the hydrolysis of γ-Glu-Cys and γ-Glu-D-Cys, by appearance of cysteine and D-cysteine respectively, as a function of time. Mean±SE; * indicates significant difference at P<0.05. FIG. 15 is a graph comparing the oxidation of γ-Glu-Cys and γ-Glu-D-Cys, by appearance of oxidized γ-Glu-Cys and oxidized γ-Glu-D-Cys respectively, as a function of time. Mean±SE. * indicates P<0.05.

[5] = Oxiselect Total Antioxidant Capacity Assay in rat serum (1-9%) in Tris Buffer; conditions: 0.0625, 0.125, 0.3125 and 0.625 mM, averaged
Experimental: (§1) FIGS. 16a and 16b indicate that the antioxidant capacities of γ-Glu-Cys and γ-Glu-D-Cys are the same using an in vitro assay. Antioxidant capacities were measured with the Oxiselect Total Antioxidant Capacity Assay Kit, using uric acid as a standard. […] Values are mean±SE. N=3 separate experiments for the 0.78, 1.56, and 3.13 mM concentrations. N=2 separate experiments for the 0.39 mM concentration. *P=0.047.

[6] = Oxiselect Total Antioxidant Capacity Assay in human plasma (90-99%)
Experimental: as §1

Human red blood cells = test: Spontaneous hemolysis of human red blood cells (hemoglobin release at 540 nm); type: cell-based; conditions: 37° C.; for difference in cytoprotective effect, γ-Glu-Cys vs γ-Glu-D-Cys: 1 mM each; for difference in cytoprotective effect, γ-Glu-Cys vs γ-Glu-D-Cys / toxicity (increase of hemolysis): 190 minutes; for spontaneous hemolysis / toxicity (increase of hemolysis): 1 mM; for spontaneous hemolysis: 5% red blood cells, phosphate buffer pH 7.4, 190 minutes
Experimental: Human red blood cells (5%) were incubated in isotonic phosphate buffer, pH 7.4 for 190 minutes at 37° C. in the presence or absence of γ-Glu-Cys and γ-Glu-D-Cys, and spontaneous hemolysis was quantified by measuring hemoglobin release spectrophotometrically at 540 nm. […] Values are mean±SE for 4 observations.

[7] = 0.39 mM in human plasma (90-99%), N=2, P=0.047
[8] = 0.78, 1.56, and 3.13 mM in human plasma (90-99%), N=3

half-life at 6.25 mM (in vitro; serum) [min] | initial rate (velocity) of degradation (in vitro; 6.25 mM) [mM/min] | SMILES | rise in intracellular sodium observed during reperfusion [1] | rise in intracellular calcium observed during reperfusion [2] | increase in caspase 3 activity [3] | LDH release (cellular damage) [4] | intactness in serum for 1 minute (in vitro; 1 min, 6.25 mM) | antioxidant capacity (uric acid equivalents), γ-Glu-Cys vs γ-Glu-D-Cys [5] | antioxidant capacity, γ-Glu-Cys vs γ-Glu-D-Cys [6, 7] | antioxidant capacity, γ-Glu-Cys vs γ-Glu-D-Cys [6, 8] | difference in cytoprotective effect, γ-Glu-Cys vs γ-Glu-D-Cys (Human red blood cells) | spontaneous hemolysis (Human red blood cells) | toxicity (increase of hemolysis) (Human red blood cells)
– | – | CN(C)c1nc(N)c(C(=O)N=C(N)N)nc1Cl [dimethylamiloride] | prevented; also recorded: inhibits the rise in intracellular sodium | prevented; also recorded: inhibits the rise in intracellular calcium | inhibited | – | – | – | – | – | – | – | –
11.3 ± 1.2 | – | N[C@@H](CCC(=O)N[C@@H](CS)C(=O)O)C(=O)O [γ-Glu-Cys, γ-glutamyl cysteine] | – | – | – | reduced LDH release; also recorded: cellular damage was significantly reduced | remains primarily intact for 1 minute in serum | not to be significantly different from each other | marginal difference | a significant difference was not detected | no significant difference in their cytoprotective effect | significantly inhibit spontaneous hemolysis | not toxic under the experimental conditions
– | 0.12 ± 0.02 | N[C@@H](CCC(=O)N[C@H](CS)C(=O)O)C(=O)O [γ-Glu-D-Cys, γ-glutamyl-D-cysteine] | – | – | – | – | – | not to be significantly different from each other | marginal difference | a significant difference was not detected | no significant difference in their cytoprotective effect | significantly inhibit spontaneous hemolysis | not toxic under the experimental conditions
